Measured values reported in the kinase profiling compilation of Christmann-Franck et al. (2016).

Legend:
Assay in all cases: KINOMEscan competition binding
Details in all cases: compound 10.0 µM
KIT (human) = KIT (human) (UniProt P10721)
PTK6 (human) = PTK6 (human) (UniProt Q13882)
PRKD1 (human) = PRKD1 (human) (UniProt Q15139)
CDK3 (human) = CDK3 (human) (UniProt Q00526)
STK24 (human) = STK24 (human) (UniProt Q9Y6E0)
STK17A (human) = STK17A (human) (UniProt Q9UEE5)
MYO3A (human) = MYO3A (human) (UniProt Q8NEV4)
SRPK3 (human) = SRPK3 (human) (UniProt Q9UPE1)
EPHB3 (human) = EPHB3 (human) (UniProt P54753)
INSR (human) = INSR (human) (UniProt P06213)
STK38 (human) = STK38 (human) (UniProt Q15208)
FLT1 (human) = FLT1 (human) (UniProt P17948)
FLT1 (human), sequence (P17948 whole entry, looked up): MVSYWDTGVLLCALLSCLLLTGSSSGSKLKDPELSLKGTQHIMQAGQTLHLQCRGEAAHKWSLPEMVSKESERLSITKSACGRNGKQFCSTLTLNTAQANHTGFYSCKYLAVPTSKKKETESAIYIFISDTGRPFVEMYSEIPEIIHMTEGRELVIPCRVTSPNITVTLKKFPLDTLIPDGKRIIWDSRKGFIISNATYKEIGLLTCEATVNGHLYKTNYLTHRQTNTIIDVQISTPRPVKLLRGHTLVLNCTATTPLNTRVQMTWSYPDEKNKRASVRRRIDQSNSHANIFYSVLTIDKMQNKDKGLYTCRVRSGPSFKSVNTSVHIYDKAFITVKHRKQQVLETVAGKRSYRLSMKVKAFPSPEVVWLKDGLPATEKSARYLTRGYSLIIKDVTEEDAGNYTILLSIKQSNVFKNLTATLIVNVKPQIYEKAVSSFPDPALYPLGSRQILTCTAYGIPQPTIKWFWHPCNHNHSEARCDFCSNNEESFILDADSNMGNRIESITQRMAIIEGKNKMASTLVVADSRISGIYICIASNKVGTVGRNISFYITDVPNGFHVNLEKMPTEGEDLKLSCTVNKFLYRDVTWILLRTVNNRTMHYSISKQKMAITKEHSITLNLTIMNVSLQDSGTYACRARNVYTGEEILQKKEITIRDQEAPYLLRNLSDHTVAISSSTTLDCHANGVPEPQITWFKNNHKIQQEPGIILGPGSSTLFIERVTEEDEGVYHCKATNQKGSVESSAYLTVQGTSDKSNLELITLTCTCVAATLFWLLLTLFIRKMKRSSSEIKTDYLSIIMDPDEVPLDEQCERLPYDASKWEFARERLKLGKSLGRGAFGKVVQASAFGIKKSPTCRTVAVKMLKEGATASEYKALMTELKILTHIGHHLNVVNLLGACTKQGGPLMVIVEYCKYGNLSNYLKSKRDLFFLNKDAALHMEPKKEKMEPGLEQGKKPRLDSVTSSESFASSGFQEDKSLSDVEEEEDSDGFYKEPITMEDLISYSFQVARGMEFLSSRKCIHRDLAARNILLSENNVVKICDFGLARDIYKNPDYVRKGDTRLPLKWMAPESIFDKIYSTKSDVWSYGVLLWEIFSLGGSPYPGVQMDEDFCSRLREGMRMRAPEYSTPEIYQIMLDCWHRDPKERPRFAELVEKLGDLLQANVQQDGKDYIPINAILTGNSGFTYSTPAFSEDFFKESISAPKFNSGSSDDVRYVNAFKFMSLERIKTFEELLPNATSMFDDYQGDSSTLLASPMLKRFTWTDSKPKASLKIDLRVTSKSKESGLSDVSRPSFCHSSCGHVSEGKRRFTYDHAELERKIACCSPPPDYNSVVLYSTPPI

CDK19 (human) = CDK19 (human) (UniProt Q9BWU1)
PIK3CG (human) = PIK3CG (human) (UniProt P48736)
CAMKK2 (human) = CAMKK2 (human) (UniProt Q96RR4)
RAF1 (human) = RAF1 (human) (UniProt P04049)
[1] = system: EGFR (human), P00533 [A750P; 747-749 del]
CDKL2 (human) = CDKL2 (human) (UniProt Q92772)
CDKL2 (human), sequence (Q92772 whole entry, looked up): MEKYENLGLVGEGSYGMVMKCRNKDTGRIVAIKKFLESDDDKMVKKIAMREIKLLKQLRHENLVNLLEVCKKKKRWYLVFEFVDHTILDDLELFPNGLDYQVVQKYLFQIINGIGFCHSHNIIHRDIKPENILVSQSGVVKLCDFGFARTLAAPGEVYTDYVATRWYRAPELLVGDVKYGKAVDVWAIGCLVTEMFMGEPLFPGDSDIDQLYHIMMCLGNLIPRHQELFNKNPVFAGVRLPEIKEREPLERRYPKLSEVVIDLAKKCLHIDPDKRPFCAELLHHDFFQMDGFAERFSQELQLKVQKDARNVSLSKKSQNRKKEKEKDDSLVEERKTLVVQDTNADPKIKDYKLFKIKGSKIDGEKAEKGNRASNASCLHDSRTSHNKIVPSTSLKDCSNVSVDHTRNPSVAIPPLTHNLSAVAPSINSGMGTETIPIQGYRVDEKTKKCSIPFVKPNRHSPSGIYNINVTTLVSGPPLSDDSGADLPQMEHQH

ROS1 (human) = ROS1 (human) (UniProt P08922)
TNIK (human) = TNIK (human) (UniProt Q9UKE5)
CSNK1E (human) = CSNK1E (human) (UniProt P49674)
CSNK1E (human), sequence (P49674 whole entry, looked up): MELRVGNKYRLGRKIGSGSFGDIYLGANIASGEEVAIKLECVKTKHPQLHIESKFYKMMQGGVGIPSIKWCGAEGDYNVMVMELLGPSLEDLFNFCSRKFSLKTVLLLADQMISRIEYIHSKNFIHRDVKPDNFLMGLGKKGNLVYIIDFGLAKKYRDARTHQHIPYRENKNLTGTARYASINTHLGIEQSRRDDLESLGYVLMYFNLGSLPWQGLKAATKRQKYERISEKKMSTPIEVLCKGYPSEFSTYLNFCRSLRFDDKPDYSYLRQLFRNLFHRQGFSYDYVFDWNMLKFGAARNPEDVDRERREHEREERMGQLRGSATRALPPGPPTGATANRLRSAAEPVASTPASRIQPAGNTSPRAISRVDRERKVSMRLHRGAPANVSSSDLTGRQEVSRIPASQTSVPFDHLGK

[2] = system: FLT3 (human), P36888 [D835Y]
BLK (human) = BLK (human) (UniProt P51451)
ULK1 (human) = ULK1 (human) (UniProt O75385)
TAOK3 (human) = TAOK3 (human) (UniProt Q9H2K8)
YES1 (human) = YES1 (human) (UniProt P07947)
YES1 (human), sequence (P07947 whole entry, looked up): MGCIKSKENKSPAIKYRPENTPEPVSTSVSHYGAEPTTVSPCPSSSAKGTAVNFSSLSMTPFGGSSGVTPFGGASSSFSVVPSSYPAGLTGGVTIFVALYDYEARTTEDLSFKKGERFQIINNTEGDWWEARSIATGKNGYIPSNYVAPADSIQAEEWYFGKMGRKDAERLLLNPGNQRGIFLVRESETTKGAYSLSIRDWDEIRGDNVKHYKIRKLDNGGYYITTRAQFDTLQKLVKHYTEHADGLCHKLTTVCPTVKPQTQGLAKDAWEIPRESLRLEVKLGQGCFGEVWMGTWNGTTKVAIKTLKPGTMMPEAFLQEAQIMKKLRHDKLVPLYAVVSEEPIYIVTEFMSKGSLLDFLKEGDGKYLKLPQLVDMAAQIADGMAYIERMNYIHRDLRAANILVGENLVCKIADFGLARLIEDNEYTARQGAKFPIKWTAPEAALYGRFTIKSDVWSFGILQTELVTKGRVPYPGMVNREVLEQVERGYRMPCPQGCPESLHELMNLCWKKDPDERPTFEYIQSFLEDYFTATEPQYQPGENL

MAPK3 (human) = MAPK3 (human) (UniProt P27361)
MAPK3 (human), sequence (P27361 whole entry, looked up): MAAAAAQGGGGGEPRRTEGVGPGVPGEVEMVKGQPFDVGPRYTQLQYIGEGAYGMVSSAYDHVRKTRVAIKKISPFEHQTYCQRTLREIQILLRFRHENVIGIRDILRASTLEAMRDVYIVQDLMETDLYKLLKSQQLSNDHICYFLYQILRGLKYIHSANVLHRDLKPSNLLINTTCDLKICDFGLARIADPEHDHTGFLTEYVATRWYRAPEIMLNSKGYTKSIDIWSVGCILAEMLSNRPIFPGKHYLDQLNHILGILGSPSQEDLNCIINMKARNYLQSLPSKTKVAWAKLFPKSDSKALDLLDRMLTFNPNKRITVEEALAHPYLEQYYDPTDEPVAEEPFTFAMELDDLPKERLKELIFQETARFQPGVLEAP

AXL (human) = AXL (human) (UniProt P30530)
AXL (human), sequence (P30530 whole entry, looked up): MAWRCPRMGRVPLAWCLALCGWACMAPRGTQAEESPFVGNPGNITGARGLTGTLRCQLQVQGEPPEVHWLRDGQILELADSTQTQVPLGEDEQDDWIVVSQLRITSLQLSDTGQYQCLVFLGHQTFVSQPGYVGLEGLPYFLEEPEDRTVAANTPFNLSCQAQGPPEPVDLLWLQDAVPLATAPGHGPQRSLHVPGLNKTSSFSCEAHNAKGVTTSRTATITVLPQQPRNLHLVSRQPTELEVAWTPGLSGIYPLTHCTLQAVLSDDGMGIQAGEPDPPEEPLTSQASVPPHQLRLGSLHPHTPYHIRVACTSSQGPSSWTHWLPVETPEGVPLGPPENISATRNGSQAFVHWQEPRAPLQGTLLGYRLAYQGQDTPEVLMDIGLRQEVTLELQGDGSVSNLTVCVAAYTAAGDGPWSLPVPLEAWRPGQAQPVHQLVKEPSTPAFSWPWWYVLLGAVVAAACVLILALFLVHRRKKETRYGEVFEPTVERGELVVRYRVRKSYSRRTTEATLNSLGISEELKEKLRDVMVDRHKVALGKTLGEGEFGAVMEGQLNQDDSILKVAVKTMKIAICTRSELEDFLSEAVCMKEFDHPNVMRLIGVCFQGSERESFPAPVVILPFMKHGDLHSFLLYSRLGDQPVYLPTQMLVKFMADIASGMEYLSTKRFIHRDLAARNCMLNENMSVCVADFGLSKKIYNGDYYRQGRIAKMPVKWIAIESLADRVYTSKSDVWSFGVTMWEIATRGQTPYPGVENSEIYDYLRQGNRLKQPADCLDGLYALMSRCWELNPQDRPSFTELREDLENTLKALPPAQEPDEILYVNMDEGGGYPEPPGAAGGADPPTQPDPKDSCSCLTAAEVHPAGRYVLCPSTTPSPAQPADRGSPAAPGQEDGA

CDK5 (human) = CDK5 (human) (UniProt Q00535)
CDK5 (human), sequence (Q00535 whole entry, looked up): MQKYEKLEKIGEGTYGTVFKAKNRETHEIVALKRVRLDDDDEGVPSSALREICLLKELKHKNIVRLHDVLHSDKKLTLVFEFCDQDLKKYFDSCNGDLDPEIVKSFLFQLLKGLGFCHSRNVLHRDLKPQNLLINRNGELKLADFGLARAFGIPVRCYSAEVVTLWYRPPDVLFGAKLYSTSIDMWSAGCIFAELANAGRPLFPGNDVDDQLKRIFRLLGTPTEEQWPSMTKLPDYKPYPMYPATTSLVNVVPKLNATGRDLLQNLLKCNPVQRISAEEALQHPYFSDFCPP

KDR (human) = KDR (human) (UniProt P35968)
RPS6KA1 KD1 (human) = RPS6KA1 KD1 (human) (UniProt Q15418)
NTRK3 (human) = NTRK3 (human) (UniProt Q16288)
DAPK1 (human) = DAPK1 (human) (UniProt P53355)
LIMK2 (human) = LIMK2 (human) (UniProt P53671)
TSSK1B (human) = TSSK1B (human) (UniProt Q9BXA7)
DDR1 (human) = DDR1 (human) (UniProt Q08345)

PTK6 (human), sequence (Q13882 whole entry, looked up): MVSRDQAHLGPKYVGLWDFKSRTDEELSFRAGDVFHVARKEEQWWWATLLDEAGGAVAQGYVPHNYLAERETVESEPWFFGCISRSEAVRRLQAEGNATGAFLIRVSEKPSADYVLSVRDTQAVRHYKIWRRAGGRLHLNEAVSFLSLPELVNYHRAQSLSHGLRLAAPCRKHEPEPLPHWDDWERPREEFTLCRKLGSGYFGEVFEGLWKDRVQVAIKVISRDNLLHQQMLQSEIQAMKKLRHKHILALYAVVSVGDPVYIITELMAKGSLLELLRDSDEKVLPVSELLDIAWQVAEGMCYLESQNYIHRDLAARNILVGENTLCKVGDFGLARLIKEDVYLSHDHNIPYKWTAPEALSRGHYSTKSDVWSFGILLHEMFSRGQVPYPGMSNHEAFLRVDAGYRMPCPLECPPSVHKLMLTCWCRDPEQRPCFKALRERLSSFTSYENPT

| kinase still bound, per cent of control (KIT (human)) [%] | kinase still bound, per cent of control (PTK6 (human)) [%] | kinase still bound, per cent of control (PRKD1 (human)) [%] | kinase still bound, per cent of control (CDK3 (human)) [%] | kinase still bound, per cent of control (STK24 (human)) [%] | kinase still bound, per cent of control (STK17A (human)) [%] | kinase still bound, per cent of control (MYO3A (human)) [%] | kinase still bound, per cent of control (EPHB3 (human)) [%] | kinase still bound, per cent of control (INSR (human)) [%] | kinase still bound, per cent of control (FLT1 (human)) [%] | kinase still bound, per cent of control (CDK19 (human)) [%] | kinase still bound, per cent of control (CAMKK2 (human)) [%] | kinase still bound, per cent of control (RAF1 (human)) [%] | kinase still bound, per cent of control [1] [%] | kinase still bound, per cent of control (ROS1 (human)) [%] | kinase still bound, per cent of control (TNIK (human)) [%] | kinase still bound, per cent of control (CSNK1E (human)) [%] | kinase still bound, per cent of control [2] [%] | kinase still bound, per cent of control (BLK (human)) [%] | kinase still bound, per cent of control (YES1 (human)) [%] | other results | SMILES |
| --- | --- | --- | --- | --- | --- | --- | --- | --- | --- | --- | --- | --- | --- | --- | --- | --- | --- | --- | --- | --- | --- |
| 0 | 24 | 100 | 100 | 100 | 100 | 100 | 27 | 100 | 100 | 100 | 100 | 6 | 100 | 100 | 100 | 100 | 100 | 15 | 13 | kinase still bound, per cent of control (SRPK3 (human)): 100%; kinase still bound, per cent of control (STK38 (human)): 100%; kinase still bound, per cent of control (PIK3CG (human)): 100%; kinase still bound, per cent of control (CDKL2 (human)): 100%; kinase still bound, per cent of control (ULK1 (human)): 100%; kinase still bound, per cent of control (TAOK3 (human)): 100%; kinase still bound, per cent of control (MAPK3 (human)): 100%; kinase still bound, per cent of control (AXL (human)): 100%; kinase still bound, per cent of control (CDK5 (human)): 100%; kinase still bound, per cent of control (KDR (human)): 100%; kinase still bound, per cent of control (RPS6KA1 KD1 (human)): 100%; kinase still bound, per cent of control (NTRK3 (human)): 100%; kinase still bound, per cent of control (DAPK1 (human)): 100%; kinase still bound, per cent of control (LIMK2 (human)): 100%; kinase still bound, per cent of control (TSSK1B (human)): 100%; kinase still bound, per cent of control (DDR1 (human)): 0.1% | Cc1cn(-c2cc(C(=O)Nc3ccc(C)c(NC(=O)c4ccno4)c3)cc(C(F)(F)F)c2)cn1 |
| 100 | 100 | 100 | 100 | 33 | 100 | 100 | 100 | 5.1 | 100 | 100 | 24 | 100 | 100 | 100 | 100 | 100 | 26 | 100 | 12 | kinase still bound, per cent of control (SRPK3 (human)): 100%; kinase still bound, per cent of control (PIK3CG (human)): 100%; kinase still bound, per cent of control (CDKL2 (human)): 100%; kinase still bound, per cent of control (ULK1 (human)): 25%; kinase still bound, per cent of control (TAOK3 (human)): 3.6%; kinase still bound, per cent of control (MAPK3 (human)): 100%; kinase still bound, per cent of control (AXL (human)): 4%; kinase still bound, per cent of control (CDK5 (human)): 100%; kinase still bound, per cent of control (KDR (human)): 100%; kinase still bound, per cent of control (RPS6KA1 KD1 (human)): 100%; kinase still bound, per cent of control (NTRK3 (human)): 100%; kinase still bound, per cent of control (DAPK1 (human)): 100%; kinase still bound, per cent of control (LIMK2 (human)): 100%; kinase still bound, per cent of control (TSSK1B (human)): 100%; kinase still bound, per cent of control (DDR1 (human)): 100% | COc1cc(C)c(Sc2cnc(NC(=O)c3ccc(CNC(C)C(C)C)cc3)s2)cc1C(=O)N1CCN(C(C)=O)CC1 (stereo unspecified) |
| 0.8 | 4 | 100 | 100 | 100 | 100 | 100 | 0 | 100 | 1.2 | 100 | 100 | 23 | 0.6 | 1.9 | 12 | 100 | 100 | 0.45 | 0.45 | kinase still bound, per cent of control (MAPK3 (human)): 100%; kinase still bound, per cent of control (AXL (human)): 100%; kinase still bound, per cent of control (CDK5 (human)): 100%; kinase still bound, per cent of control (KDR (human)): 4.5%; kinase still bound, per cent of control (RPS6KA1 KD1 (human)): 100%; kinase still bound, per cent of control (NTRK3 (human)): 13%; kinase still bound, per cent of control (DAPK1 (human)): 100%; kinase still bound, per cent of control (LIMK2 (human)): 0%; kinase still bound, per cent of control (TSSK1B (human)): 100%; kinase still bound, per cent of control (DDR1 (human)): 0.55% | COc1ccc(N(C(=O)Oc2cc(C(=O)Nc3cccc(C(F)(F)F)c3)ccc2C)c2ccnc(Nc3ccc(N4CCN(C)CC4)cc3)n2)c(OC)c1 |
| 100 | 3 | 100 | 100 | 100 | 100 | 15 | 100 | 0.05 | 100 | 100 | 6.5 | 100 | 0.15 | 3.2 | 100 | 34 | 5.2 | 22 | 100 | kinase still bound, per cent of control (SRPK3 (human)): 100%; kinase still bound, per cent of control (PIK3CG (human)): 100%; kinase still bound, per cent of control (CDKL2 (human)): 100%; kinase still bound, per cent of control (ULK1 (human)): 100%; kinase still bound, per cent of control (TAOK3 (human)): 100%; kinase still bound, per cent of control (MAPK3 (human)): 100%; kinase still bound, per cent of control (AXL (human)): 8.6%; kinase still bound, per cent of control (CDK5 (human)): 100%; kinase still bound, per cent of control (KDR (human)): 100%; kinase still bound, per cent of control (RPS6KA1 KD1 (human)): 100%; kinase still bound, per cent of control (NTRK3 (human)): 100%; kinase still bound, per cent of control (DAPK1 (human)): 100%; kinase still bound, per cent of control (LIMK2 (human)): 100%; kinase still bound, per cent of control (TSSK1B (human)): 100%; kinase still bound, per cent of control (DDR1 (human)): 100% | COc1cc(N2CCC(C(N)=O)CC2)ccc1Nc1nc(N)c(Cl)c(Nc2ccccc2S(=O)(=O)C(C)C)n1 |
